In paper PMC4513223 (Clinical Pharmacokinetics, 2015):
Like-named read-outs stand apart in the source and are kept apart here.

Columns and labels:
[1] = Non-compartmental plasma pharmacokinetics after a single oral filgotinib dose; assay type: in vivo; conditions: male, human
[2] = assay type: in vivo, human; conditions: for Tmax / AUC(0-t) / Cmax / concentration at 12 h / concentration at 24 h: oral
[3] = Population pharmacokinetic model; assay type: in vivo, human; conditions: estimate (% RSE)
[4] = tested on: JAK1 (IL-6-induced STAT1 phosphorylation); assay type: cell-based, human; conditions: sigmoid Emax model, common to filgotinib and metabolite; estimate (% RSE)
JAK1 = conditions: human whole blood; cited from earlier work

SMILES: O=C(Nc1nc2cccc(-c3ccc(CN4CCS(=O)(=O)CC4)cc3)n2n1)C1CC1 [Filgotinib]
- AUC(0-inf) ([1]; 10 mg): 136 ng·h/mL
- Cmax ([1]; 10 mg): 35.7 ng/mL
- Tmax ([1]; 10 mg): 1 h
- half-life ([1]; 10 mg): 6.38 h
- AUC(0-inf) ([1]; 25 mg): 348 ng·h/mL
- Cmax ([1]; 25 mg): 83 ng/mL
- Tmax ([1]; 25 mg): 2.5 h
- half-life ([1]; 25 mg): 5.72 h
- AUC(0-inf) ([1]; 50 mg): 771 ng·h/mL
- Cmax ([1]; 50 mg): 247 ng/mL
- Tmax ([1]; 50 mg): 2 h
- half-life ([1]; 50 mg): 5.28 h
- AUC(0-inf) ([1]; 100 mg): 1740 ng·h/mL
- Cmax ([1]; 100 mg): 565 ng/mL
- Tmax ([1]; 100 mg): 2 h
- half-life ([1]; 100 mg): 4.91 h
- AUC(0-inf) ([1]; 200 mg): 4840 ng·h/mL
- Cmax ([1]; 200 mg): 1160 ng/mL
- Tmax ([1]; 200 mg): 3 h
- half-life ([1]; 200 mg): 5.68 h
- Tmax ([2]; male, human, plasma): 0.5 to 5 h
- AUC(0-t) ([2]; male, human, plasma, 25 mg): 346 ng·h/mL
- Cmax ([2]; male, human, plasma, 25 mg): 144 ng/mL
- Tmax ([2]; male, human, plasma, 25 mg): 0.5 h
- concentration at 12 h ([2]; male, human, plasma, 25 mg): 3.75 ng/mL
- AUC(0-t) ([2]; male, human, plasma, 50 mg): 758 ng·h/mL
- Cmax ([2]; male, human, plasma, 50 mg): 211 ng/mL
- Tmax ([2]; male, human, plasma, 50 mg): 1.5 h
- concentration at 12 h ([2]; male, human, plasma, 50 mg): 9.52 ng/mL
- AUC(0-t) ([2]; male, human, plasma, 100 mg): 2380 ng·h/mL
- Cmax ([2]; male, human, plasma, 100 mg): 556 ng/mL
- Tmax ([2]; male, human, plasma, 100 mg): 3 h
- concentration at 12 h ([2]; male, human, plasma, 100 mg): 27.8 ng/mL
- AUC(0-t) ([2]; male, human, plasma, 200 mg): 4450 ng·h/mL
- Cmax ([2]; male, human, plasma, 200 mg): 1200 ng/mL
- Tmax ([2]; male, human, plasma, 200 mg): 2 h
- concentration at 24 h ([2]; male, human, plasma, 200 mg): 6.04 ng/mL
- AUC(0-t) ([2]; male, human, plasma, 300 mg): 4400 ng·h/mL
- Cmax ([2]; male, human, plasma, 300 mg): 1380 ng/mL
- Tmax ([2]; male, human, plasma, 300 mg): 1.5 h
- concentration at 24 h ([2]; male, human, plasma, 300 mg): 9.93 ng/mL
- AUC(0-t) ([2]; male, human, plasma, 450 mg): 10200 ng·h/mL
- Cmax ([2]; male, human, plasma, 450 mg): 2580 ng/mL
- Tmax ([2]; male, human, plasma, 450 mg): 2.5 h
- concentration at 24 h ([2]; male, human, plasma, 450 mg): 17.6 ng/mL
- half-life ([2]; male, human, plasma, po, elimination half-life, average, oral administration): 6 h
- accumulation at steady state ([2]; repeated dosing): no accumulation
- time to steady state of plasma concentrations ([2]; repeated dosing, regardless of dose and regimen (once or twice daily)): ≤ 2 days
- Effect of sex (on V C/F) ([3]; covariate effect): 2.95 (47.7)
- Relative increase in bioavailability in RA patients vs healthy volunteers [3]: 0.216 (39.0)
- ka (first-order absorption rate constant) ([3]; log-transformed parameter): −0.733 (5.64) /h
- FRAC300 mg ([3]; probit-transformed parameter, 300 mg dose): 0.375 (23.9)
- FRAC450 mg ([3]; probit-transformed parameter, 450 mg dose): 0.363 (38.5)
- log H (hill factor) [4]: 0.680 (27.7)
- selectivity for JAK1- over JAK2-dependent signaling (JAK1): 30 fold
